Measurements as given in US20260041640A1 (INCYCLIX BIO, LLC, priority 2023, published 2026).
Where two headings read alike, the source gives them in different places.

Test: First-in-human clinical study: plasma and whole blood PK of INX-315 (oral QD, ASD tablet)
Format: in vivo
Conditions: human, plasma, plasma
From the text: All INX-315 tablets were taken at approximately the same time(s) each day.
Samples will also be collected pre-dose on Cycle 1 Days 2, 8, 16, and Day 22, and pre-dose on Day 1 of each subsequent cycle.
Standard non-compartmental PK parameters were estimated.
Geometric mean and geometric CV % will be included in the summary statistics.
PK parameters will be summarized descriptively by dosing cohort. AUC and Cmax values will also be presented in scatter plots. Dose proportionality will be assessed for AUC and Cmax using a power model. The 90% CI of the slope for each PK parameter will be estimated from the model and presented in a summary table.
Cohort 1 enrollment of 6 subjects dosed at 100 mg oral QD was completed in October of 2023.
Patients were upgraded to the 200 mg QD dose level and PK/PD plasma parameters were measured (FIG. 18A).
Patients were administered the 200 mg QD and 300 mg QD dose levels and PK/PD plasma parameters were measured.

## NS(=O)(=O)c1ccc(Nc2ncc3cc4n(c3n2)C2(CCCCC2)C(=O)NN4)cc1 [INX-315]
oral, 100 mg, 100 mg QD, Day 15 observed, mean of first two patients, read-out: Cmin^free
  concentration at 15 day: 9.2 ng/mL
oral, 100 mg, 100 mg QD, first dose level (Table 5), read-out: C12 hr
  concentration at 12 h: 252 ng/mL
oral, 100 mg, 100 mg QD, first dose level (Table 5), read-out: C24 hr
  concentration at 24 h: 177 ng/mL
oral, 100 mg, 100 mg QD, first dose level (Table 5), read-out: Cmax
  Cmax: 388 ng/mL
oral, 100 mg, 100 mg QD, removing esophageal cancer patient with low exposure, read-out: Total Area (adjusted AUC)
  AUC: 2740 ng·h/mL
oral, 200 mg, 200 mg QD (n = 2), 0.5 hr
  concentration at 0.5 h: 69.6 ng/mL
oral, 200 mg, 200 mg QD (n = 2), 1.0 hr
  concentration at 1 h: 109 ng/mL
oral, 200 mg, 200 mg QD (n = 2), 2.0 hr
  concentration at 2 h: 246 ng/mL
oral, 200 mg, 200 mg QD (n = 2), 6.0 hr
  concentration at 6 h: 343 ng/mL
oral, 200 mg, 200 mg QD (n = 2), 8.0 hr
  concentration at 8 h: 374 ng/mL
oral, 200 mg, 200 mg QD (n = 2), […], read-out: Mean plasma concentration
  concentration at 24 h: 141 ng/mL
oral, 200 mg, 200 mg QD (n = 2), read-out: Total Area (AUC)
  AUC: 6260 ng·h/mL
oral, 200 mg, 200 mg QD, Day 1, Cohort 2, read-out: AUClast, geometric mean
  AUC(0-t): 8940 ng·h/mL
oral, 200 mg, 200 mg QD, Day 1, Cohort 2, read-out: AUClast, median
  AUC(0-t): 7970 ng·h/mL
oral, 200 mg, 200 mg QD, Day 1, Cohort 2, read-out: Cmax, geometric mean
  Cmax: 590 ng/mL
oral, 200 mg, 200 mg QD, Day 1, Cohort 2, read-out: Cmax, median
  Cmax: 577 ng/mL
oral, 200 mg, 200 mg QD, Day 1, Cohort 2, read-out: Tmax, median
  Tmax: 8 h
oral, 200 mg, 200 mg QD, Day 1, individual subjects, read-out: Tmax
  Tmax: 8 h
oral, 200 mg, 200 mg QD, Day 1, individual subjects, read-out: t1/2 (converted)
  half-life: 18.1 h
oral, 200 mg, 200 mg QD, Day 15, Cohort 2, read-out: AUClast, geometric mean
  AUC(0-t): 12200 ng·h/mL
oral, 200 mg, 200 mg QD, Day 15, Cohort 2, read-out: AUClast, median
  AUC(0-t): 13700 ng·h/mL
oral, 200 mg, 200 mg QD, Day 15, Cohort 2, read-out: Cmax, geometric mean
  Cmax: 922 ng/mL
oral, 200 mg, 200 mg QD, Day 15, Cohort 2, read-out: Cmax, median
  Cmax: 888 ng/mL
oral, 200 mg, 200 mg QD, Day 15, Cohort 2, read-out: Tmax, median
  Tmax: 6 h
oral, 200 mg, 200 mg QD, Day 15, Cohort 2, read-out: t1/2, geometric mean (converted)
  half-life: 10.8 h
oral, 200 mg, 200 mg QD, Day 15, Cohort 2, read-out: t1/2, median (converted)
  half-life: 10.5 h
oral, 200 mg, 200 mg QD, Day 15, individual subjects, read-out: Cmax
  Cmax: 779 ng/mL
oral, 200 mg, 200 mg QD, Day 15, individual subjects, read-out: t1/2 (converted)
  half-life: 8.36 h
oral, 300 mg, Cohort 3 (300 mg QD), Day 1, individual subjects, read-out: AUC Plasma
  AUC: 8200 ng·h/mL
oral, 300 mg, Cohort 3 (300 mg QD), Day 15, Tlast = 6 hours, read-out: AUC Plasma
  AUC: 4570 ng·h/mL
oral, 300 mg, Cohort 3 (300 mg QD), Day 15, individual subjects, read-out: AUC Plasma
  AUC: 5820 ng·h/mL
oral, 300 mg, 300 mg QD cohort, Day 1, geometric mean, read-out: AUClast, Geometric Mean
  AUC(0-t): 9550 ng·h/mL
oral, 300 mg, 300 mg QD cohort, Day 1, geometric mean, read-out: Cmax, Geometric Mean
  Cmax: 628 ng/mL
oral, 300 mg, 300 mg QD cohort, Day 1, individual subjects, read-out: AUClast
  AUC(0-t): 10200 ng·h/mL
oral, 300 mg, 300 mg QD cohort, Day 1, individual subjects, read-out: Cmax
  Cmax: 727 ng/mL
oral, 300 mg, 300 mg QD cohort, Day 1, individual subjects, read-out: Tmax
  Tmax: 8 h
oral, 300 mg, 300 mg QD cohort, Day 1, individual subjects, read-out: t1/2 (converted)
  half-life: 17.3 h
oral, 300 mg, 300 mg QD cohort, Day 1, median, read-out: AUClast, Median
  AUC(0-t): 10200 ng·h/mL
oral, 300 mg, 300 mg QD cohort, Day 1, median, read-out: Cmax, Median
  Cmax: 615 ng/mL
oral, 300 mg, 300 mg QD cohort, Day 1, median, read-out: Tmax, Median
  Tmax: 8 h
oral, 300 mg, 300 mg QD cohort, Day 15, individual subjects, read-out: AUClast
  AUC(0-t): 5590 ng·h/mL
oral, 300 mg, 300 mg QD cohort, Day 15, individual subjects, read-out: Cmax
  Cmax: 568 ng/mL
oral, 300 mg, 300 mg QD cohort, Day 15, individual subjects, read-out: Tmax
  Tmax: 1 h
oral, 300 mg, 300 mg QD cohort, Day 15, individual subjects, read-out: t1/2 (converted)
  half-life: 9.23 h
po, 100 mg, 100 mg QD cohort, Day 1, geometric mean, read-out: AUClast, Geometric Mean
  AUC(0-t): 2020 ng·h/mL
po, 100 mg, 100 mg QD cohort, Day 1, geometric mean, read-out: Cmax, Geometric Mean
  Cmax: 148 ng/mL
po, 100 mg, 100 mg QD cohort, Day 1, geometric mean, read-out: t1/2, Geometric Mean (converted)
  half-life: 13.1 h
po, 100 mg, 100 mg QD cohort, Day 1, individual subjects, read-out: t1/2 (converted)
  half-life: 11.5 h
po, 100 mg, 100 mg QD cohort, Day 1, median, read-out: AUClast, Median
  AUC(0-t): 2280 ng·h/mL
po, 100 mg, 100 mg QD cohort, Day 1, median, read-out: Cmax, Median
  Cmax: 187 ng/mL
